pIC50: −log10 of the molar value.
target: human integrin αvβ6 (Homo sapiens (Human), UniProt P06756+P18564); experiment: Proximity-based integrin receptor binding assay (ALPHASCREEN) for inhibitor potency; conditions: inhibition of binding of TGF-b1 LAP to human integrin αvβ6; values given in ranges
How it was run: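 AlphaScreen: integrin, compound, TGF-b1 LAP, biotinylated anti-LAP antibody and acceptor beads incubated 2 hours, then streptavidin donor beads 30 minutes, at room temperature in 50 mM Tris-HCl pH 7.5, 0.1% BSA, 1 mM CaCl2 and MgCl2. Excitation 680 nm, emission 520-620 nm; IC50 by four-parameter logistic fit.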

Chain of human integrin αvβ6 (P06756 31-992): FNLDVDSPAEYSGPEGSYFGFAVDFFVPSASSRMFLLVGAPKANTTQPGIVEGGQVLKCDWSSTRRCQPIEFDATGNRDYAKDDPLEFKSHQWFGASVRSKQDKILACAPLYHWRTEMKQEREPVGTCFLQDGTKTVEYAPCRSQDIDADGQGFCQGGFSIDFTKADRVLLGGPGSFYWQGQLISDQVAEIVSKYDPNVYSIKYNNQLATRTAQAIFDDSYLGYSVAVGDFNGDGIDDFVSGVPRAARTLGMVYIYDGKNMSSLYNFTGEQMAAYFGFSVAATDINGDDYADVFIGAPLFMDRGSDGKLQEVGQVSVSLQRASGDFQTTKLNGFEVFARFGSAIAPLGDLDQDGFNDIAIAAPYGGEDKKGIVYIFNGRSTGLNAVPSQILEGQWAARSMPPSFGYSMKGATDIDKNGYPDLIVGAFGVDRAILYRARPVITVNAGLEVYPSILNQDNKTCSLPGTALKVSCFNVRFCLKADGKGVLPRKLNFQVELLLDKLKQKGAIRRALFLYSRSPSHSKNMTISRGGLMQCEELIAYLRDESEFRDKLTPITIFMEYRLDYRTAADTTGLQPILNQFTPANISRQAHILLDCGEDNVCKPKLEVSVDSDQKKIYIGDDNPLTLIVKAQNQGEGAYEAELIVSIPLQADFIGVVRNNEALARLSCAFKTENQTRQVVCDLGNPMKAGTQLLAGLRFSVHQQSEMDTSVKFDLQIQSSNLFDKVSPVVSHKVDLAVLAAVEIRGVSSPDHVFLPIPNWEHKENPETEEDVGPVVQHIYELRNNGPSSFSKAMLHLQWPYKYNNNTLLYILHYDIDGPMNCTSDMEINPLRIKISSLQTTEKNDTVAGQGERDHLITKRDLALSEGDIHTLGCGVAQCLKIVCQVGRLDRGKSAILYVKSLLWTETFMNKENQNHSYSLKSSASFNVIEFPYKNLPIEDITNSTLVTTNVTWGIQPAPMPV
Chain of human integrin αvβ6 (P18564 22-707): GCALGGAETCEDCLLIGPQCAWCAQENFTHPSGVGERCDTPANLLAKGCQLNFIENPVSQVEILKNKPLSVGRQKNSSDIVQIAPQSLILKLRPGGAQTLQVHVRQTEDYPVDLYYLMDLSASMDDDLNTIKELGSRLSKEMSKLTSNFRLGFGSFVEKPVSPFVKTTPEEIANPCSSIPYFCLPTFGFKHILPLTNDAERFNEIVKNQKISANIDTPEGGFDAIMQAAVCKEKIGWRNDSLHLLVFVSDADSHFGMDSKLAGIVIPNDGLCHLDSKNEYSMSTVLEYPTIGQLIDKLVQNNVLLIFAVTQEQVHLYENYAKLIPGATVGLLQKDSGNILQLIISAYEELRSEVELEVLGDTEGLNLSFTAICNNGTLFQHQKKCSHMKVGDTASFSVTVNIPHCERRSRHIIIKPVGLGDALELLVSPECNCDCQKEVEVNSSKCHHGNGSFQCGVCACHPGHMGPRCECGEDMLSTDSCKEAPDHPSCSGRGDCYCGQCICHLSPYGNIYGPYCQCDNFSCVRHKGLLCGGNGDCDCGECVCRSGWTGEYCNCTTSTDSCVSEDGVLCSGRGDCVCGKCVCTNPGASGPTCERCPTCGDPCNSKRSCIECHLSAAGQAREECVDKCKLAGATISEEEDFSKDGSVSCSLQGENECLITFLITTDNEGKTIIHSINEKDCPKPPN

`CC(C)(CO)C(=O)NC(CCO[C@H]1C[C@H](CCc2ccc3c(n2)NCCC3)C1)C(=O)O` (stereo partly drawn) [Compound 89, N-(3-hydroxy-2,2-dimethylpropanoyl)-O-(trans-3-(2-(5,6,7,8-tetrahydro-1,8-naphthyridin-2-yl)ethyl)cyclobutyl)homoserine] and `COCC(C)(C)C(=O)NC(CCO[C@H]1C[C@H](CCc2ccc3c(n2)NCCC3)C1)C(=O)O` (stereo partly drawn) [Compound 90, N-(3-methoxy-2,2-dimethylpropanoyl)-O-(trans-3-(2-(5,6,7,8-tetrahydro-1,8-naphthyridin-2-yl)ethyl)cyclobutyl)homoserine] fall in the same range of pIC50: 6.00 to 6.60 for the first, 6.00 to 6.60 for the second.

Compared with `CC(C)(C(=O)NC(CCO[C@H]1C[C@H](CCc2ccc3c(n2)NCCC3)C1)C(=O)O)c1cccnc1` (stereo partly drawn) [Compound 91, N-(2-methyl-2-(pyridin-3-yl)propanoyl)-O-(trans-3-(2-(5,6,7,8-tetrahydro-1,8-naphthyridin-2-yl)ethyl)cyclobutyl)homoserine], `CC(C)(C(=O)NC(CCO[C@H]1C[C@H](CCc2ccc3c(n2)NCCC3)C1)C(=O)O)c1ccc(F)cc1` (stereo partly drawn) [Compound 102, N-(2-(4-fluorophenyl)-2-methylpropanoyl)-O-(trans-3-(2-(5,6,7,8-tetrahydro-1,8-naphthyridin-2-yl)ethyl)cyclobutyl)homoserine] is higher in pIC50: 6.60 to 7.30 for the first, > 7.30 for the second. The second is the more potent here.

First: O=C(NC(CCO[C@H]1C[C@H](CCc2ccc3c(n2)NCCC3)C1)C(=O)O)C1Cc2ccccc2C1 (stereo partly drawn) [Compound 92, N-(2,3-dihydro-1H-indene-2-carbonyl)-O-(trans-3-(2-(5,6,7,8-tetrahydro-1,8-naphthyridin-2-yl)ethyl)cyclobutyl)homoserine]
Second: O=C(O)C(CCO[C@H]1C[C@H](CCc2ccc3c(n2)NCCC3)C1)NC(=O)C1(c2ccccc2)CC1 (stereo partly drawn) [Compound 97, N-(1-phenylcyclopropane-1-carbonyl)-O-(trans-3-(2-(5,6,7,8-tetrahydro-1,8-naphthyridin-2-yl)ethyl)cyclobutyl)homoserine]
The pIC50 of the first is lower: 6.00 to 6.60 for the first, > 7.30 for the second. The second is the more potent here.

Compared with `CC(C)(CC#N)C(=O)NC(CCO[C@H]1C[C@H](CCc2ccc3c(n2)NCCC3)C1)C(=O)O` (stereo partly drawn) [Compound 93, N-(3-cyano-2,2-dimethylpropanoyl)-O-(trans-3-(2-(5,6,7,8-tetrahydro-1,8-naphthyridin-2-yl)ethyl)cyclobutyl)homoserine], `CC(C)(CO)C(=O)NC(CCO[C@H]1C[C@H](CCc2ccc3c(n2)NCCC3)C1)C(=O)O` (stereo partly drawn) [Compound 104, N-(3-hydroxy-2,2-dimethylpropanoyl)-O-(trans-3-(2-(5,6,7,8-tetrahydro-1,8-naphthyridin-2-yl)ethyl)cyclobutyl)homoserine] is higher in pIC50: 6.60 to 7.30 for the first, > 7.30 for the second.

First: CC(C)(C)C(=O)NC(CCO[C@H]1C[C@H](CCc2ccc3c(n2)NCCC3)C1)C(=O)O (stereo partly drawn) [Compound 94, N-pivaloyl-O-(trans-3-(2-(5,6,7,8-tetrahydro-1,8-naphthyridin-2-yl)ethyl)cyclobutyl)homoserine]
Second: CC(C)(C)OC(=O)NC(CCO[C@H]1C[C@H](CCc2ccc3c(n2)NCCC3)C1)C(=O)O (stereo partly drawn) [Compound 101, N-(tert-butoxycarbonyl)-O-(trans-3-(2-(5,6,7,8-tetrahydro-1,8-naphthyridin-2-yl)ethyl)cyclobutyl)homoserine]
The pIC50 of the first is lower: 6.60 to 7.30 for the first, > 7.30 for the second. The second is the more potent here.

Compared with `CC(C)(Cc1ccccc1)C(=O)NC(CCO[C@H]1C[C@H](CCc2ccc3c(n2)NCCC3)C1)C(=O)O` (stereo partly drawn) [Compound 100, N-(2,2-dimethyl-3-phenylpropanoyl)-O-(trans-3-(2-(5,6,7,8-tetrahydro-1,8-naphthyridin-2-yl)ethyl)cyclobutyl)homoserine], `CC(C)(CC#N)C(=O)NC(CCO[C@H]1C[C@H](CCc2ccc3c(n2)NCCC3)C1)C(=O)O` (stereo partly drawn) [Compound 108, N-(3-cyano-2,2-dimethylpropanoyl)-O-(trans-3-(2-(5,6,7,8-tetrahydro-1,8-naphthyridin-2-yl)ethyl)cyclobutyl)homoserine] is higher in pIC50: 6.60 to 7.30 for the first, > 7.30 for the second. The second is the more potent here.

`CC1(C(=O)NC(CCO[C@H]2C[C@H](CCc3ccc4c(n3)NCCC4)C2)C(=O)O)COC1` (stereo partly drawn) [Compound 103, N-(3-methyloxetane-3-carbonyl)-O-(trans-3-(2-(5,6,7,8-tetrahydro-1,8-naphthyridin-2-yl)ethyl)cyclobutyl)homoserine] and `CC1(OC(=O)N[C@@H](CCO[C@H]2C[C@H](CCc3ccc4c(n3)NCCC4)C2)C(=O)O)CC1` [Compound 113, N-((1-methylcyclopropoxy)carbonyl)-O-(trans-3-(2-(5,6,7,8-tetrahydro-1,8-naphthyridin-2-yl)ethyl)cyclobutyl)homoserine] cannot be ordered by pIC50: > 7.30 for the first, > 7.30 for the second.

`COCC(C)(C)C(=O)NC(CCO[C@H]1C[C@H](CCc2ccc3c(n2)NCCC3)C1)C(=O)O` (stereo partly drawn) [Compound 105, N-(3-methoxy-2,2-dimethylpropanoyl)-O-(trans-3-(2-(5,6,7,8-tetrahydro-1,8-naphthyridin-2-yl)ethyl)cyclobutyl)homoserine] and `CC(C)(C)C(=O)NC(CCO[C@H]1C[C@H](CCc2ccc3c(n2)NCCC3)C1)C(=O)O` (stereo partly drawn) [Compound 109, N-pivaloyl-O-(trans-3-(2-(5,6,7,8-tetrahydro-1,8-naphthyridin-2-yl)ethyl)cyclobutyl)homoserine] cannot be ordered by pIC50: > 7.30 for the first, > 7.30 for the second.

`CC(C)(C(=O)NC(CCO[C@H]1C[C@H](CCc2ccc3c(n2)NCCC3)C1)C(=O)O)c1cccnc1` (stereo partly drawn) [Compound 106, N-(2-methyl-2-(pyridin-3-yl)propanoyl)-O-(trans-3-(2-(5,6,7,8-tetrahydro-1,8-naphthyridin-2-yl)ethyl)cyclobutyl)homoserine] and `CC(C)(C)NC(=O)N[C@@H](CCO[C@H]1C[C@H](CCc2ccc3c(n2)NCCC3)C1)C(=O)O` [Compound 118, N-(tert-butylcarbamoyl)-O-(trans-3-(2-(5,6,7,8-tetrahydro-1,8-naphthyridin-2-yl)ethyl)cyclobutyl)homoserine] cannot be ordered by pIC50: > 7.30 for the first, > 7.30 for the second.

`O=C(NC(CCO[C@H]1C[C@H](CCc2ccc3c(n2)NCCC3)C1)C(=O)O)C1Cc2ccccc2C1` (stereo partly drawn) [Compound 107, N-(2,3-dihydro-1H-indene-2-carbonyl)-O-(trans-3-(2-(5,6,7,8-tetrahydro-1,8-naphthyridin-2-yl)ethyl)cyclobutyl)homoserine] and `O=C(CC1CCC1)N[C@@H](CCO[C@H]1C[C@H](CCc2ccc3c(n2)NCCC3)C1)C(=O)O` [Compound 124, N-(2-cyclobutylacetyl)-O-(trans-3-(2-(5,6,7,8-tetrahydro-1,8-naphthyridin-2-yl)ethyl)cyclobutyl)homoserine] cannot be ordered by pIC50: > 7.30 for the first, > 7.30 for the second.

`CC(C)(C)COC(=O)N[C@@H](CCO[C@H]1C[C@H](CCc2ccc3c(n2)NCCC3)C1)C(=O)O` [Compound 112, N-((neopentyloxy)carbonyl)-O-(trans-3-(2-(5,6,7,8-tetrahydro-1,8-naphthyridin-2-yl)ethyl)cyclobutyl)homoserine] and `CC(C)(C)CC(=O)N[C@@H](CCO[C@H]1C[C@H](CCc2ccc3c(n2)NCCC3)C1)C(=O)O` [Compound 122, N-(3,3-dimethylbutanoyl)-O-(trans-3-(2-(5,6,7,8-tetrahydro-1,8-naphthyridin-2-yl)ethyl)cyclobutyl)homoserine] fall in the same range of pIC50: 6.60 to 7.30 for the first, 6.60 to 7.30 for the second.

`CC1(OC(=O)N[C@@H](CCO[C@H]2C[C@H](CCc3ccc4c(n3)NCCC4)C2)C(=O)O)CCC1` [Compound 114, N-((1-methylcyclobutoxy)carbonyl)-O-(trans-3-(2-(5,6,7,8-tetrahydro-1,8-naphthyridin-2-yl)ethyl)cyclobutyl)homoserine] and `CC(C)OC(=O)N[C@@H](CCO[C@H]1C[C@H](CCc2ccc3c(n2)NCCC3)C1)C(=O)O` [Compound 116, N-(isopropoxycarbonyl)-O-(trans-3-(2-(5,6,7,8-tetrahydro-1,8-naphthyridin-2-yl)ethyl)cyclobutyl)homoserine] cannot be ordered by pIC50: > 7.30 for the first, > 7.30 for the second.

First: CC(C)(OC(=O)N[C@@H](CCO[C@H]1C[C@H](CCc2ccc3c(n2)NCCC3)C1)C(=O)O)C(F)(F)F [Compound 115, O-(trans-3-(2-(5,6,7,8-tetrahydro-1,8-naphthyridin-2-yl)ethyl)cyclobutyl)-N-(((1,1,1-trifluoro-2-methylpropan-2-yl)oxy)carbonyl)homoserine]
Second: CN(C(=O)N[C@@H](CCO[C@H]1C[C@H](CCc2ccc3c(n2)NCCC3)C1)C(=O)O)C(C)(C)C [Compound 119, N-(tert-butyl(methyl)carbamoyl)-O-(trans-3-(2-(5,6,7,8-tetrahydro-1,8-naphthyridin-2-yl)ethyl)cyclobutyl)homoserine]
The pIC50 of the first is higher: > 7.30 for the first, 6.60 to 7.30 for the second. The first is the more potent here.

`CCN(CC)C(=O)N[C@@H](CCO[C@H]1C[C@H](CCc2ccc3c(n2)NCCC3)C1)C(=O)O` [Compound 117, N-(diethylcarbamoyl)-O-(trans-3-(2-(5,6,7,8-tetrahydro-1,8-naphthyridin-2-yl)ethyl)cyclobutyl)homoserine] and `CC(C)N(C)C(=O)N[C@@H](CCO[C@H]1C[C@H](CCc2ccc3c(n2)NCCC3)C1)C(=O)O` [Compound 120, N-(isopropyl(methyl)carbamoyl)-O-(trans-3-(2-(5,6,7,8-tetrahydro-1,8-naphthyridin-2-yl)ethyl)cyclobutyl)homoserine] cannot be ordered by pIC50: > 7.30 for the first, > 7.30 for the second.

`CC(C)N(C(=O)N[C@@H](CCO[C@H]1C[C@H](CCc2ccc3c(n2)NCCC3)C1)C(=O)O)C(C)C` [Compound 121, N-(diisopropylcarbamoyl)-O-(trans-3-(2-(5,6,7,8-tetrahydro-1,8-naphthyridin-2-yl)ethyl)cyclobutyl)homoserine] and `CC(C)CC(=O)N[C@@H](CCO[C@H]1C[C@H](CCc2ccc3c(n2)NCCC3)C1)C(=O)O` [Compound 123, N-(3-methylbutanoyl)-O-(trans-3-(2-(5,6,7,8-tetrahydro-1,8-naphthyridin-2-yl)ethyl)cyclobutyl)homoserine] cannot be ordered by pIC50: > 7.30 for the first, > 7.30 for the second.

same assay, conditions: inhibition of binding of TGF-b1 LAP to human integrin αvβ6; values given in ranges; listed as 98**

In the case of `CC(C)(C(=O)NC(CCO[C@H]1C[C@H](CCc2ccc3c(n2)NCCC3)C1)C(=O)O)c1ccccc1` (stereo partly drawn) [Compound 98, N-(2-methyl-2-phenylpropanoyl)-O-(trans-3-(2-(5,6,7,8-tetrahydro-1,8-naphthyridin-2-yl)ethyl)cyclobutyl)homoserine], the pIC50 was > 7.30.

Reference: patent publication US11180494B2, “Substituted amino acids as integrin inhibitors” (Pliant Therapeutics, Inc., priority 2018, dated 2021)
